From patent US20170253607A1, “LONG-ACTING HIV PROTEASE INHIBITOR” (Shionogi & Co., Ltd., priority 2014, published 2017)

Each molecule was assayed against HIV-1 PR (Human immunodeficiency virus type 1 group M subtype B, UniProt P04585) (assay: HIV-protease inhibitory activity assay (FRET peptide substrate)). Settings: Test Example 1.
Assay type: biochemical
Method in brief: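 Compounds were preincubated with HIV-1 PR (0.83 ng) at room temperature in pH 4.8 NaAc buffer (0.5 M NaCl, EDTA, DTT, Tween 20), then HiLyte Fluor 488/QXL 520 FRET peptide (2 μmol/L final) was added for 60 min. Fluorescence was read at 485/535 nm, and IC50 was fitted by four-parameter logistic regression.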
With `COc1ccc(S(=O)(=O)N(CC(C)C)CC(O)C(Cc2ccc(OCCN(C)c3ccc(C#N)cc3-c3sc4c(c3C(=O)O)CC(C)(C)CC4)cc2)NC(=O)OC2COC3(C)OCCC23)cc1` (stereo not drawn) [Compound I-257] the IC50 was 4.98 nM. `CC(C)CN(CC(O)C(Cc1ccc(CCc2sc3c(c2C(=O)O)CC(C)(C)CC3)cc1)NC(=O)OC1COC2(C)OCCC12O)S(=O)(=O)c1ccc2ncsc2c1` (stereo not drawn) [Compound I-889] gave an IC50 of 1.49 nM. Molecule `CC(C)CN(CC(O)C(Cc1ccc(OCc2ccccc2-c2ccccc2C(=O)O)cc1)NC(=O)OC1COC2(C)OCCC12)S(=O)(=O)c1ccc2ncsc2c1` (stereo not drawn) [Compound I-64] has an IC50 of 1.3 nM. In the case of `COc1ccc(S(=O)(=O)N(CC(C)C)CC(O)C(Cc2ccc(NCc3cc(-c4sc5c(c4C(=O)O)CC(C)(C)CC5)ccc3OC)cc2)NC(=O)OC2COC3(C)OCCC23)cc1` (stereo not drawn) [Compound I-281], the IC50 is reported as 2.95 nM. `COc1ccc(S(=O)(=O)N(CC(C)C)CC(O)C(Cc2ccc(NCc3cc(-c4ccc5c(c4)[nH]c4ccccc45)ccc3-c3sc4c(c3C(=O)O)CC(C)(C)CC4)cc2)NC(=O)OC2COC3(C)OCCC23)cc1` (stereo not drawn) [Compound I-724] showed an IC50 of 1.83 nM. `COc1ccc(S(=O)(=O)N(CC(C)C)CC(O)C(Cc2ccc(N(Cc3ccccc3)Cc3ccccc3-c3sc4c(c3C(=O)O)CC(C)(C)CC4)cc2)NC(=O)OC2COC3(C)OCCC23)cc1` (stereo not drawn) [Compound I-299] showed an IC50 of 16.5 nM. In the case of `COc1ccc(S(=O)(=O)N(CC(C)C)CC(O)C(Cc2ccc(OCc3ccccc3NC(=O)c3cc(Cl)cc(Cl)c3O)cc2)NC(=O)OC2COC3(C)OCCC23)cc1` (stereo not drawn) [Compound I-69], the IC50 is reported as 1.17 nM. For `COc1ccc(S(=O)(=O)N(CC(C)C)CC(O)C(Cc2ccc(CN(C)c3ccccc3-c3sc4c(c3C(=O)O)CC(C)(C)CC4)cc2)NC(=O)OC2COC3(C)OCCC23)cc1` (stereo not drawn) [Compound I-249], the IC50 was 2.26 nM. In the case of `COc1ccc(S(=O)(=O)N(CC(C)C)C[C@@H](O)[C@H](Cc2ccccc2)NC(=O)O[C@H]2CO[C@@]3(CNC(=O)OCCCc4sc5c(c4C(=O)O)CC(C)(C)CC5)OCC[C@@H]23)cc1` [Compound I-34], the IC50 is reported as 1.28 nM. For `COc1ccc(S(=O)(=O)N(CC(C)C)CC(O)C(Cc2ccc(NCc3occc3-c3sc4c(c3C(=O)O)CC(C)(C)CC4)cc2)NC(=O)OC2COC3(C)OCCC23)cc1` (stereo not drawn) [Compound I-276], the IC50 was 2.16 nM. `COc1ccc(S(=O)(=O)N(CC(C)C)CC(O)C(Cc2ccc(N3CCC(C(=O)Nc4ccccc4-c4sc5c(c4C(=O)O)CC(C)(C)CC5)C3)cc2)NC(=O)OC2COC3(C)OCCC23)cc1` (stereo not drawn) [Compound I-672] showed an IC50 of 2.05 nM. `COc1ccc(S(=O)(=O)N(CC(C)C)CC(O)C(Cc2ccc(NCc3ccccc3-c3cc4c(cc3C(=O)O)OCCO4)cc2)NC(=O)OC2COC3(C)OCCC23)cc1` (stereo not drawn) [Compound I-496] gave an IC50 of 1.81 nM. `COc1ccc(S(=O)(=O)N(CC(C)C)CC(O)C(Cc2ccc(NCc3cccc(-c4sc5c(c4C(=O)O)CC(C)(C)CC5)c3F)cc2)NC(=O)OC2COC3(C)OCCC23)cc1` (stereo not drawn) [Compound I-543] showed an IC50 of 2.14 nM. `COc1ccc(S(=O)(=O)N(CC(C)C)CC(O)C(Cc2ccc(OCC3COCC3c3sc4c(c3C(=O)O)CC(C)(C)CC4)cc2)NC(=O)OC2COC3(C)OCCC23)cc1` (stereo not drawn) [Compound I-395] gave an IC50 of 1.86 nM. `COc1ccc(S(=O)(=O)N(CC(C)C)CC(O)C(Cc2ccc(N(Cc3ccccc3-c3sc4c(c3C(=O)O)CC(C)(C)CC4)CC(C)C)cc2)NC(=O)OC2COC3(C)OCCC23)cc1` (stereo not drawn) [Compound I-422] gave an IC50 of 8.58 nM. For `COc1ccc(S(=O)(=O)N(CC(C)C)CC(O)C(Cc2ccc(N3CCC(c4sc5c(c4C(=O)O)CC(C)(C)CC5)CC3)cc2)NC(=O)OC2COC3(C)OCCC23)cc1` (stereo not drawn) [Compound I-227], the IC50 was 3.26 nM. Work on `COc1ccc(S(=O)(=O)N(CC(C)C)CC(O)C(Cc2ccc(N3CCC(C(=O)Nc4sc5c(c4C(=O)O)CC(C)(C)CC5)C3)cc2)NC(=O)OC2COC3(C)OCCC23)cc1` (stereo not drawn) [Compound I-645] yielded an IC50 of 2.51 nM. With `COc1ccc(S(=O)(=O)N(CC(C)C)CC(O)C(Cc2ccc(OCCNC(=O)c3cc(Cl)cc(Cl)c3O)cc2)NC(=O)OC2COC3(C)OCCC23)cc1` (stereo not drawn) [Compound I-68] the IC50 was 1.83 nM. Work on `COc1ccc(S(=O)(=O)N(CC(C)C)CC(O)C(Cc2ccc(OC3CCCN(c4ccc(C#N)cc4-c4sc5c(c4C(=O)O)CC(C)(C)CC5)C3)cc2)NC(=O)OC2COC3(C)OCCC23)cc1` (stereo not drawn) [Compound I-331] yielded an IC50 of 12.3 nM. In the case of `COc1ccc(S(=O)(=O)N(CC(C)C)CC(O)C(Cc2ccc(NCc3cc(-c4sc5c(c4C(=O)O)CC(C)(C)CC5)co3)cc2)NC(=O)OC2COC3(C)OCCC23)cc1` (stereo not drawn) [Compound I-284], the IC50 is reported as 2.98 nM. Work on `COc1ccc(S(=O)(=O)N(CC(C)C)CC(O)C(Cc2ccc(NCC3CCCCC3NC(=O)c3sc4c(c3C(=O)O)CC(C)(C)CC4)cc2)NC(=O)OC2COC3(C)OCCC23)cc1` (stereo not drawn) [Compound I-611] yielded an IC50 of 1.95 nM. `COc1ccc(S(=O)(=O)N(CC(C)C)CC(O)C(Cc2ccc(Oc3ccc(-c4sc5c(c4C(=O)O)CC(C)(C)CC5)cc3)cc2)NC(=O)OC2COC3(C)OCCC23)cc1` (stereo not drawn) [Compound I-133] gave an IC50 of 1.53 nM. `COc1ccc(S(=O)(=O)N(CC(C)C)CC(O)C(Cc2ccc(N(C)Cc3nc(N4CCN(C)CC4)sc3-c3sc4c(c3C(=O)O)CC(C)(C)CC4)cc2)NC(=O)OC2COC3(C)OCCC23)cc1` (stereo not drawn) [Compound I-758] showed an IC50 of 1.62 nM. With `COc1ccc(S(=O)(=O)N(CC(C)C)CC(O)C(Cc2ccc(NCc3ccc(-c4sc5c(c4C(=O)O)CC(C)(C)CC5)cc3F)cc2)NC(=O)OC2COC3(C)OCCC23)cc1` (stereo not drawn) [Compound I-282] the IC50 was 4.04 nM. Molecule `COc1ccc(S(=O)(=O)N(CC(C)C)CC(O)C(Cc2ccc(OCc3ccccc3-c3ccc4c(C(=O)O)c(-c5ccc(Cl)cc5C)sc4c3)cc2)NC(=O)OC2COC3(C)OCCC23)cc1` (stereo not drawn) [Compound I-73] has an IC50 of 4.73 nM. For `CC(C)CN(CC(O)C(Cc1ccc(OCc2ccc3ccccc3c2C(N)=O)cc1)NC(=O)OC1COC2(C)OCCC12)S(=O)(=O)c1ccc2ncsc2c1` (stereo not drawn) [Compound I-162], the IC50 was 0.96 nM. `COc1ccc(S(=O)(=O)N(CC(C)C)CC(O)C(Cc2ccc(OCc3ccccc3-c3sc(C)c(-c4ccccc4)c3C(=O)O)cc2)NC(=O)OC2COC3OCCC23)cc1` (stereo not drawn) [Compound I-824] gave an IC50 of 1.01 nM. In the case of `COc1ccc(S(=O)(=O)N(CC(C)C)CC(O)C(Cc2ccc(OCc3ccccc3-c3sc(N4CCC(C)(C)CC4)nc3C(=O)O)cc2)NC(=O)OC2COC3OCCC23)cc1` (stereo not drawn) [Compound I-844], the IC50 is reported as 1.01 nM. Work on `COc1ccc(S(=O)(=O)N(CC(C)C)CC(O)C(Cc2ccc(NCc3ccccc3-c3c(C(=O)O)cnc4onc(C)c34)cc2)NC(=O)OC2COC3(C)OCCC23)cc1` (stereo not drawn) [Compound I-505] yielded an IC50 of 1.55 nM. Work on `CC(C)CN(CC(O)C(Cc1ccc(OCc2ccc(C(=O)O)c(-c3ccc(F)cc3F)n2)cc1)NC(=O)OC1COC2(C)OCCC12)S(=O)(=O)c1ccc2ncsc2c1` (stereo not drawn) [Compound I-156] yielded an IC50 of 1.3 nM. Work on `COc1ccc(S(=O)(=O)N(CC(C)C)CC(O)C(Cc2ccc(OCc3cnn(-c4ccccc4)c3-c3sc4c(c3C(=O)O)CC(C)(C)CC4)cc2)NC(=O)OC2COC3(C)OCCC23)cc1` (stereo not drawn) [Compound I-185] yielded an IC50 of 1.71 nM. `CCCN(Cc1ccccc1-c1sc2c(c1C(=O)O)CC(C)(C)CC2)c1ccc(CC(NC(=O)OC2COC3(C)OCCC23)C(O)CN(CC(C)C)S(=O)(=O)c2ccc(OC)cc2)cc1` (stereo not drawn) [Compound I-462] showed an IC50 of 3.33 nM. Work on `COc1ccc(S(=O)(=O)N(CC(C)C)CC(O)C(Cc2ccc(N(C)Cc3ccc(N4CCCCC4=O)cc3-c3sc4c(c3C(=O)O)CC(C)(C)CC4)cc2)NC(=O)OC2COC3(C)OCCC23)cc1` (stereo not drawn) [Compound I-743] yielded an IC50 of 2.32 nM. `COc1ccc(S(=O)(=O)N(CC(C)C)CC(O)C(Cc2ccc(N(C)Cc3nc(N4CCOCC4)sc3-c3sc4c(c3C(=O)O)CC(C)(C)CC4)cc2)NC(=O)OC2COC3(C)OCCC23)cc1` (stereo not drawn) [Compound I-757] was tested, and the IC50 was 3.02 nM. Molecule `COc1ccc(S(=O)(=O)N(CC(C)C)CC(O)C(Cc2ccc(OCc3ccccc3-c3ccc4c(c3C(=O)O)CC(C)(C)CC4)cc2)NC(=O)OC2COC3(C)OCCC23)cc1` (stereo not drawn) [Compound I-40] has an IC50 of 1.9 nM. In the case of `COc1ccc(S(=O)(=O)N(CC(C)C)CC(O)C(Cc2ccc(OCc3ccccc3-n3nc(C(=O)O)c4c3CCC(C(F)(F)F)C4)cc2)NC(=O)OC2COC3(C)OCCC23)cc1` (stereo not drawn) [Compound I-142], the IC50 is reported as 1.72 nM. With `CC(C)CN(CC(O)C(Cc1ccc(OCc2cc(C(=O)O)ccc2-c2ccc(F)cc2F)cc1)NC(=O)OC1COC2(C)OCCC12)S(=O)(=O)c1ccc2ncsc2c1` (stereo not drawn) [Compound I-151] the IC50 was 1.88 nM. With `COc1ccc(S(=O)(=O)N(CC(C)C)C[C@@H](O)[C@H](Cc2ccc(NCC(=O)Nc3sc4c(c3C(=O)O)CC(C)(C)CC4)cc2)NC(=O)OC2CO[C@@]3(C)OCC[C@@H]23)cc1` (stereo partly drawn) [Compound I-593] the IC50 was 1.71 nM. `COc1ccc(S(=O)(=O)N(CC(C)C)CC(O)C(Cc2ccc(N(C)Cc3cnc4sccc4c3-c3sc4c(c3C(=O)O)CC(C)(C)CC4)cc2)NC(=O)OC2COC3(C)OCCC23)cc1` (stereo not drawn) [Compound I-702] showed an IC50 of 2.15 nM. With `COc1ccc(S(=O)(=O)N(CC(C)C)CC(O)C(Cc2ccc(NCc3cc(O)cc(-c4sc5c(c4C(=O)O)CC(C)(C)CC5)c3)cc2)NC(=O)OC2COC3(C)OCCC23)cc1` (stereo not drawn) [Compound I-562] the IC50 was 1.98 nM. `CCN(C(=O)Nc1ccccc1-c1sc2c(c1C(=O)O)CC(C)(C)CC2)c1ccc(CC(NC(=O)OC2COC3(C)OCCC23)C(O)CN(CC(C)C)S(=O)(=O)c2ccc(OC)cc2)cc1` (stereo not drawn) [Compound I-377] gave an IC50 of 5.4 nM. With `COc1ccc(S(=O)(=O)N(CC(C)C)CC(O)C(Cc2ccc(OCc3ccccc3-c3sc4c(c3C(=O)O)CCC(=O)C4)cc2)NC(=O)OC2COC3OCCC23)cc1` (stereo not drawn) [Compound I-833] the IC50 was 1.54 nM. `COc1ccc(S(=O)(=O)N(CC2CCCC2)CC(O)C(Cc2ccc(OCc3ccccc3Cn3nc(C(=O)O)c4c3CCC(C)(C)C4)cc2)NC(=O)OC2COC3(C)OCCC23)cc1` (stereo not drawn) [Compound I-221] gave an IC50 of 2.11 nM. `CC(C)CN(C[C@@H](O)[C@H](Cc1ccc(OCc2ccccc2-c2sc3c(c2C(=O)O)CC(C)(C)CC3)cc1)NC(=O)O[C@H]1CO[C@@]2(C)OCC[C@@H]12)S(=O)(=O)c1ccc(N)c(CCC(N)=O)c1` [Compound I-17] showed an IC50 of 1.24 nM. With `COc1ccc(S(=O)(=O)N(CC(C)C)CC(O)C(Cc2ccc(NCC3(c4ccc(-c5sc6c(c5C(=O)O)CC(C)(C)CC6)cc4)CCCCC3)cc2)NC(=O)OC2COC3(C)OCCC23)cc1` (stereo not drawn) [Compound I-369] the IC50 was 15.8 nM.
